In ChEMBL document CHEMBL1938296, “Steroidal C-21 heteroaryl thioethers (Part 2): discovery of orally bioavailable selective glucocorticoid receptor modulators (dissociated steroids)” (Bioorg Med Chem Lett, 2012):

How the values were obtained:
Glucocorticoid receptor [1] = molecular target: T1, Glucocorticoid receptor (Homo sapiens, UniProt P04150); experiment: Transactivation of glucocorticoid receptor in human HepG2 cells assessed as induction of TAT measuring degradation of tyrosine to p-hydroxy phenyl pyruvate at 1 uM relative to untreated control; type: cell-based; conditions: hepg2, 1 µM
T1 sequence (P04150 whole entry): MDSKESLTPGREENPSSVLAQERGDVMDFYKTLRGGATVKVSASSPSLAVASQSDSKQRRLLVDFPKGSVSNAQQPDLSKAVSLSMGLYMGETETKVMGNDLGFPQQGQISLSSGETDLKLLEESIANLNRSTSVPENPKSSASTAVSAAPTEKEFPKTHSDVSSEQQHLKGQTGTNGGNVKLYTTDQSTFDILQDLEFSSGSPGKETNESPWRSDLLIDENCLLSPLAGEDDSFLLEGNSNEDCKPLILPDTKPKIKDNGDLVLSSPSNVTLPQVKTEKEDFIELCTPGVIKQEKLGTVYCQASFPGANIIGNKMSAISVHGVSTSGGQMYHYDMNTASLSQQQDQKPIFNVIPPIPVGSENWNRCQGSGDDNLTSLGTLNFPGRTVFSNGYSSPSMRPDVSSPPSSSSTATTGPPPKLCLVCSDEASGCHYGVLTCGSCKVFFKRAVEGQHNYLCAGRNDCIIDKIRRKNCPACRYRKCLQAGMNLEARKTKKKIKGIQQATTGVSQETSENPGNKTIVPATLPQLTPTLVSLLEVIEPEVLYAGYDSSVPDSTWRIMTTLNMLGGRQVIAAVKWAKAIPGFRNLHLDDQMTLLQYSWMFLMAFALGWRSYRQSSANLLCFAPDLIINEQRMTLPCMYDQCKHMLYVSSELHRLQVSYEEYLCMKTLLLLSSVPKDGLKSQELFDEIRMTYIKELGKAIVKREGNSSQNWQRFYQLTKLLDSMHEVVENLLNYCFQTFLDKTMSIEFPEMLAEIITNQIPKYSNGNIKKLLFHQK

Rattus norvegicus [2] = experiment: Toxicity in Brown Norway rat allergic lung inflammation model assessed as decrease in thymus weight at 10 mg/kg, po for 3 days; type: organism-based; parameters: dose 10 mg/kg, route oral; scale not given: the % may be the effect or the level left; conditions: in vivo, 72 h
Glucocorticoid receptor [3] = molecular target: T1, Glucocorticoid receptor; experiment: Transactivation of glucocorticoid receptor in human HepG2 cells assessed as induction of TAT measuring degradation of tyrosine to p-hydroxy phenyl pyruvate; type: cell-based; conditions: read-out: IC50 (the source's name)
Glucocorticoid receptor [4] = molecular target: T2, Glucocorticoid receptor (Rattus norvegicus, UniProt P06536); experiment: Transactivation of glucocorticoid receptor in rat H42E cells assessed as induction of TAT measuring degradation of tyrosine to p-hydroxy phenyl pyruvate; type: cell-based; conditions: read-out: IC50 (the source's name)
T2 sequence (P06536 whole entry): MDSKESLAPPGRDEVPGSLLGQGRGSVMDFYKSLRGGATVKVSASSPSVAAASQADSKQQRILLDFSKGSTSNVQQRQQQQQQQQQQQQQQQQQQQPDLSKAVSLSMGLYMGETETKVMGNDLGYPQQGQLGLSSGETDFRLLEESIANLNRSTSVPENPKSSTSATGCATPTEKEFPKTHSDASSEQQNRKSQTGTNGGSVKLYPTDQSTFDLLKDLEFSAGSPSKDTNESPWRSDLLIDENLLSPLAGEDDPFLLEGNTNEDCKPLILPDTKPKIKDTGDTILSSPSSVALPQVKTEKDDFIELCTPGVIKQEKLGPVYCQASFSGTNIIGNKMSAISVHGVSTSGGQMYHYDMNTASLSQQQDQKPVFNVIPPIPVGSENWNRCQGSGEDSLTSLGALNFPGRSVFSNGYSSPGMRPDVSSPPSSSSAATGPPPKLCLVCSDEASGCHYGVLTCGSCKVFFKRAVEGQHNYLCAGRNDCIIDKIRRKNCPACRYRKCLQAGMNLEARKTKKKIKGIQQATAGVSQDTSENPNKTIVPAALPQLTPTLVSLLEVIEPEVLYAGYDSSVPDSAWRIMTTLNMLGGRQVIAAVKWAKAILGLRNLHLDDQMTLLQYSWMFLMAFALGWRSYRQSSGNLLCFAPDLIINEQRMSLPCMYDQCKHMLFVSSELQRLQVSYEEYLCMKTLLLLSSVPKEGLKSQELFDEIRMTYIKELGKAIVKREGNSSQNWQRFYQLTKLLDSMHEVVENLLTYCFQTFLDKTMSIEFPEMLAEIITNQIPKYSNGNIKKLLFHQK

Rattus norvegicus [5] = experiment: Antiinflammatory activity against Brown Norway rat allergic lung inflammation model assessed as total cell inhibition at 10 mg/kg, po for 3 days; type: functional; parameters: scale not given: the % may be the effect or the level left
[6] = AUC in Brown Norway rat at 10 mg/kg, po; type: ADME, organism-based; parameters: dose 10 mg/kg, route oral; conditions: plasma
Glucocorticoid receptor [7] = molecular target: T2, Glucocorticoid receptor; experiment: Transactivation of glucocorticoid receptor in rat H42E cells assessed as induction of TAT measuring degradation of tyrosine to p-hydroxy phenyl pyruvate at 1 uM relative to prednisolone; type: cell-based; conditions: read-out: Efficacy
Glucocorticoid receptor [8] = molecular target: T1, Glucocorticoid receptor; experiment: Transrepression activity at glucocorticoid receptor in human H292 cells assessed as inhibition of TNF-stimulated IL-8 production; type: cell-based

Structure (SMILES)	Efficacy (Glucocorticoid receptor [1])	Activity (Rattus norvegicus [2])	EC50 (Glucocorticoid receptor [3])	EC50 (Glucocorticoid receptor [4])	Activity (Rattus norvegicus [5])	AUC [6]	Emax at 1 µM (Glucocorticoid receptor [7])	IC50 (Glucocorticoid receptor [8])
C[C@]12C=CC(=O)C=C1CC[C@@H]1[C@@H]2[C@@H](O)C[C@@]2(C)[C@H]1CC[C@]2(O)C(=O)CSc1ccc2ccccc2n1	52%	0%	262 nM	361 nM	21%	1200 ng·h/mL	56%	70.2 nM
Cc1ccnc(SCC(=O)[C@@]2(O)CC[C@H]3[C@@H]4CCC5=CC(=O)C=C[C@]5(C)[C@H]4[C@@H](O)C[C@@]32C)n1	6%	–	–	–	–	–	6%	11.4 nM
C[C@]12C=CC(=O)C=C1CC[C@@H]1[C@@H]2[C@@H](O)C[C@@]2(C)[C@H]1CC[C@]2(O)C(=O)CSc1nc2ncccc2o1	21%	9%	–	–	56%	2940 ng·h/mL	29%	17.2 nM
C[C@@H]1C[C@H]2[C@@H]3CCC4=CC(=O)C=C[C@]4(C)[C@H]3[C@@H](O)C[C@]2(C)[C@@]1(O)C(=O)CSc1nccc2ccccc12	8%	–	–	–	–	–	6%	17.6 nM
C[C@@H]1C[C@H]2[C@@H]3CCC4=CC(=O)C=C[C@]4(C)[C@H]3[C@@H](O)C[C@]2(C)[C@@]1(O)C(=O)CSc1nc2cccnc2s1	27%	75%	722 nM	24.1 nM	75%	11900 ng·h/mL	13%	7 nM
C[C@@H]1C[C@H]2[C@@H]3CCC4=CC(=O)C=C[C@]4(C)[C@H]3[C@@H](O)C[C@]2(C)[C@@]1(O)C(=O)CSc1ccc2ccccc2n1	19%	66%	–	19.2 nM	73%	5280 ng·h/mL	45%	46.5 nM
C[C@@H]1C[C@H]2[C@@H]3CCC4=CC(=O)C=C[C@]4(C)[C@H]3[C@@H](O)C[C@]2(C)[C@@]1(O)C(=O)CSc1nc2ccccc2s1	62%	–	1000 nM	230 nM	–	–	35%	5.8 nM
C[C@]12C=CC(=O)C=C1CC[C@@H]1[C@@H]2[C@@H](O)C[C@@]2(C)[C@H]1CC[C@]2(O)C(=O)CSc1nc2ccccc2o1	22%	–	–	–	–	26 ng·h/mL	32%	13.5 nM
C[C@@H]1C[C@H]2[C@@H]3CCC4=CC(=O)C=C[C@]4(C)[C@H]3[C@@H](O)C[C@]2(C)[C@@]1(O)C(=O)CSc1ncnc2ccccc12	30%	–	–	–	–	–	8%	23.5 nM
C[C@]12C=CC(=O)C=C1CC[C@@H]1[C@@H]2[C@@H](O)C[C@@]2(C)[C@H]1CC[C@]2(O)C(=O)CSc1ncc2ccccc2n1	10%	11%	–	–	46%	606 ng·h/mL	2%	68.7 nM
C[C@@H]1C[C@H]2[C@@H]3CCC4=CC(=O)C=C[C@]4(C)[C@H]3[C@@H](O)C[C@]2(C)[C@@]1(O)C(=O)CSc1nc2ncccc2o1	32%	–	–	135 nM	–	–	37%	6 nM
C[C@@H]1C[C@H]2[C@@H]3CCC4=CC(=O)C=C[C@]4(C)[C@H]3[C@@H](O)C[C@]2(C)[C@@]1(O)C(=O)CSc1nnc(-c2ccccc2)o1	57%	–	80.3 nM	740 nM	–	–	65%	5.1 nM
CCn1c(SCC(=O)[C@@]2(O)CC[C@H]3[C@@H]4CCC5=CC(=O)C=C[C@]5(C)[C@H]4[C@@H](O)C[C@@]32C)nc2ccccc21	9%	–	–	–	–	–	10%	41.3 nM
C[C@]12C=CC(=O)C=C1CC[C@@H]1[C@@H]2[C@@H](O)C[C@@]2(C)[C@H]1CC[C@]2(O)C(=O)CSc1nc2ccccc2s1	–	15%	–	–	45%	1220 ng·h/mL	19%	–
C[C@@H]1C[C@H]2[C@@H]3CCC4=CC(=O)C=C[C@]4(C)[C@H]3[C@@H](O)C[C@]2(C)[C@@]1(O)C(=O)CSc1nc2ccccc2n1C	13%	–	–	–	–	–	2%	69.3 nM
C[C@]12C=CC(=O)C=C1CC[C@@H]1[C@@H]2[C@@H](O)C[C@@]2(C)[C@H]1CC[C@]2(O)C(=O)CSc1nc2cccnc2s1	6%	–	–	–	–	–	7%	118 nM
C[C@@H]1C[C@H]2[C@@H]3CCC4=CC(=O)C=C[C@]4(C)[C@H]3[C@@H](O)C[C@]2(C)[C@@]1(O)C(=O)CO	125%	–	15.7 nM	–	–	–	–	1.6 nM
Cc1cccc(SCC(=O)[C@@]2(O)[C@H](C)C[C@H]3[C@@H]4CCC5=CC(=O)C=C[C@]5(C)[C@H]4[C@@H](O)C[C@@]32C)n1	33%	–	–	–	–	–	29%	1.69 nM
C[C@]12C=CC(=O)C=C1CC[C@@H]1[C@@H]2[C@@H](O)C[C@@]2(C)[C@H]1CC[C@]2(O)C(=O)CSc1nc2ncccc2[nH]1	7%	–	–	–	–	–	2%	57.2 nM
C[C@@H]1C[C@H]2[C@@H]3CCC4=CC(=O)C=C[C@]4(C)[C@H]3[C@@H](O)C[C@]2(C)[C@@]1(O)C(=O)CSc1nc2ccccc2o1	–	–	–	–	–	–	–	4.4 nM
C[C@]12C=CC(=O)C=C1CC[C@@H]1[C@@H]2[C@@H](O)C[C@@]2(C)[C@H]1CC[C@]2(O)C(=O)CSc1ccccn1	22%	–	238 nM	707 nM	–	–	23%	43.8 nM
C[C@@H]1C[C@H]2[C@@H]3CCC4=CC(=O)C=C[C@]4(C)[C@H]3[C@@H](O)C[C@]2(C)[C@@]1(O)C(=O)CSc1nc2ccccc2[nH]1	30%	–	–	–	–	–	3%	36 nM
C[C@@H]1C[C@H]2[C@@H]3CCC4=CC(=O)C=C[C@]4(C)[C@H]3[C@@H](O)C[C@]2(C)[C@@]1(O)C(=O)CSc1cnc2ccccc2n1	54%	65%	–	–	85%	1950 ng·h/mL	3%	37.9 nM
C[C@]12C=CC(=O)C=C1CC[C@@H]1[C@@H]2[C@@H](O)C[C@@]2(C)[C@H]1CC[C@]2(O)C(=O)CSc1nc(-c2ccccc2)cs1	42%	–	–	–	–	–	9%	305 nM
